Test results published in publication PMC12455397 (Angewandte Chemie (International Ed. in English), 2025).
Structures can show the parent of a compound that is named as a salt. Where two headings read alike, the source gives them in different places.

Tests used:
human Keap1 Kelch = human Keap1 Kelch (Homo sapiens, UniProt Q14145); assay: Fluorescence polarization (FP) competition assay with Cy5-Nrf2 peptide probe
Protocol: Fluorescence Polarization Assay
(3 nM) and human Keap1 Kelch at 14 nM in the 1×HBSTET assay buffer, as previously.[1, 3-5] In short, the assay was performed in black flat-bottom 384-well plates (Corning Life Sciences, NY) allowing an assay volume of 30 μL/well. Proper mixing and elimination of air bubbles was ascertained by spinning down the plates and incubation for 10–15 minutes at RT before measuring FP levels on a Safire2 plate-reader (Tecan, Männedorf, Switzerland). The Ki values of the compounds were determined by dose-response experiments (12-points, 4% DMSO in all wells), where FP values were fitted to the equation Y = Bottom + (Top - Bottom)/[1 + (10HillSlope*(LogIC50-X))]; X representing the logarithmic value of compound concentration. The resulting IC50 value, together with the Kd value (the dissociation constant between probe and Keap1 Kelch, determined in a prior experiment) and Keap1 Kelch concentrations, was used to calculate the theoretical competitive inhibition constant, the Ki value.[18]

Keap1 Kelch domain = Keap1 Kelch domain (Homo sapiens, UniProt Q14145); assay: Surface plasmon resonance (SPR), immobilized Keap1 Kelch
Protocol: Surface Plasmon Resonance
SPR measurements were performed at 25 °C using a Pioneer FE FE instrument (Sartorius), as described
previosuly.[1, 3-4] The Keap1 Kelch domain was covalently immobilized on the biosensor chip surface by
amine coupling to a level of 2150 RU, using a 10 mM NaOAc pH 5 immobilization buffer. The 1×HBSTET
buffer (10 mM Hepes, 150 mM NaCl, 0.005% Tween20, 3 mM EDTA, 1 mM TCEP, pH = 7.4)
supplemented with 4% DMSO was used as running buffer for the experiments. Microcalibration was
performed for all SPR experiments to adjust for DMSO bulk effects (low limit of 3% and a high limit of
5%). The compound was injected in a concentration series of twofold serial dilutions (67.5–1000 µM)
using standard injections at a 30 μL/min flow rate. The data were analyzed using Qdat Data Analysis
Tool version 2.6.3.0 (Sartorius). The sensorgrams were corrected for buffer effects and unspecific
binding to the chip matrix by subtraction of blank and reference surfaces (a blank flow cell channel
activated by the injection of EDC/NHS and inactivated by the injection of ethanolamine). The
dissociation constant (Kd) was estimated by plotting MW normalized response levels (RUnorm) at equilibrium (Req) against the injected concentration and curve-fitted to a Langmuir (1:1) binding

[1] = system: Nrf2 KO THP1 cells differentiated into macrophages; assay: RNA sequencing transcriptome analysis, Nrf2 KO THP-1 macrophages; type: cell-based; details: 12 h, CDDO-Me 0.1 µM, DMF, 24, 28 10 µM, KI-696 1 µM
THP1 cells = type: cell-based; details: THP-1 WT, 100 µM, 48 h; stated as contrast to 24/28, which did not reduce viability
Protocol: THP1 cells were exposed to the compounds for 48 hours at 10 and 100 μM. Viability was quantified using
propidium iodide exclusion through flow cytometry. PI-positive cells (dead or necrotic cells) were quantified
through red fluorescence on a BD C6 Accuri flow cytometer using a 488 nm excitation wavelength and an
emission filter of 585 nm ± 40 nm (BD Biosciences). 50,000 events were collected (n = 3 technical replicates
per condition). The experiment was repeated twice. Data are presented as mean ± SEM (n = 4‒10).

[2] = system: differentiated THP1 macrophages (WT)
[3] = WT, 12 h, CDDO-Me 0.1 µM, SFN, DMF, 24, 28 10 µM, KI-696 1 µM
[4] = WT, 12 h, CDDO-Me 0.1 µM, SFN, DMF, 24, 28 10 µM, KI-696 1 µM, NS = not significant

Keap1 Kelch domain, sequence (Q14145 321-609 limits assumed): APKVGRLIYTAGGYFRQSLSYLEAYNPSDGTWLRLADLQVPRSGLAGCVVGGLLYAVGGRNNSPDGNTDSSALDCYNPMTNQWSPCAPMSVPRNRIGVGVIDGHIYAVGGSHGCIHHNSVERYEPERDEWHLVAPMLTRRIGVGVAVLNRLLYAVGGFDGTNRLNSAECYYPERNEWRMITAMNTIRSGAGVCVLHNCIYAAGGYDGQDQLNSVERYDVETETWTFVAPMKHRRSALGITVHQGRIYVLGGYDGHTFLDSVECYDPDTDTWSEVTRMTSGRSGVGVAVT
human Keap1 Kelch, sequence (Q14145 321-609): as the sequence (Q14145 321-609 limits assumed) above

Row | SMILES | AKR1B10 FC ([2]; Table S3, THP-1, 12 h) | CASP1 FC ([2]; Table S3, THP-1, 12 h) | COL1A1 FC ([2]; Table S3, THP-1, 12 h) | COL4A1 FC ([2]; Table S3, THP-1, 12 h) | COL4A2 FC ([2]; Table S3, THP-1, 12 h) | GPX1 FC ([2]; Table S3, THP-1, 12 h) | GPX4 FC ([2]; Table S3, THP-1, 12 h) | IFNAR1 FC ([2]; Table S3, THP-1, 12 h) | IFNAR2 FC ([2]; Table S3, THP-1, 12 h) | IFNGR1 FC ([2]; Table S3, THP-1, 12 h) | IFNGR2 FC ([2]; Table S3, THP-1, 12 h) | IL1B FC ([2]; Table S3, THP-1, 12 h) | IRF3 FC ([2]; Table S3, THP-1, 12 h) | LAMB1 FC ([2]; Table S3, THP-1, 12 h) | LAMB4 FC ([2]; Table S3, THP-1, 12 h) | MMP8 FC ([2]; Table S3, THP-1, 12 h) | MMP9 FC ([2]; Table S3, THP-1, 12 h) | MMP12 FC ([2]; Table S3, THP-1, 12 h) | NLRP3 FC ([2]; Table S3, THP-1, 12 h) | NOD2 FC ([2]; Table S3, THP-1, 12 h) | further results
1 | O=C(COc1ccccc1)NC1CCCCC1 [Compound 1] | – | – | – | – | – | – | – | – | – | – | – | – | – | – | – | – | – | – | – | – | activity in FP competition assay (human Keap1 Kelch): inactive; Kd (Keap1 Kelch domain; KD (SPR, printed in Figure 1b), Rmax fixed to theoretical maximum (15 RU)): 686 ± 7 µM; Kd (Keap1 Kelch domain; Kd (SPR), estimated with Rmax fixed to theoretical maximum): ~700 µM; ligand efficiency (LE) (Keap1 Kelch domain; from SPR Kd): 0.25
2 | COC(=O)/C=C/C(=O)OC [DMF, dimethyl fumarate] | 1,00 fold | 0,18 fold | 0,44 fold | 1,46 fold | 1,16 fold | 0,59 fold | 1,09 fold | 0,95 fold | 0,80 fold | 0,93 fold | 0,78 fold | 2,70 fold | 1,15 fold | 4,44 fold | 7,56 fold | 1,70 fold | 0,85 fold | 1,88 fold | 1,19 fold | 0,31 fold | number of up- or downregulated genes in Nrf2 KO cells [1]: 3709 genes; cell viability (THP1 cells): contrasted; NOXA1 FC ([2]; Table S3, THP-1, 12 h): 0,30 fold; SOCS1 FC ([2]; Table S3, THP-1, 12 h): 5,21 fold; SOCS3 FC ([2]; Table S3, THP-1, 12 h): 18,01 fold; SOD1 FC ([2]; Table S3, THP-1, 12 h): 1,73 fold; SOD2 FC ([2]; Table S3, THP-1, 12 h): 0,19 fold; STAT1 FC ([2]; Table S3, THP-1, 12 h): 0,62 fold; TBK1 FC ([2]; Table S3, THP-1, 12 h): 1,19 fold; TLR4 FC ([2]; Table S3, THP-1, 12 h): 0,84 fold; TNFRSF1B FC ([2]; Table S3, THP-1, 12 h): 1,26 fold; TRAP1 FC ([2]; Table S3, THP-1, 12 h): 0,85 fold; cGAS FC ([2]; Table S3, THP-1, 12 h): 1,04 fold; number of upregulated genes not shared by the other groups ([2]; WT, 12 h, CDDO-Me 0.1 µM, DMF 10 µM): > 500 genes; Average FC of upregulated Nrf2-dependent genes [2, 3]: 4.2 fold; number of upregulated genes (FC >2.0, p-adj <0.05) [2, 3]: 845 genes
3 | COc1cc([C@@H](CC(=O)O)c2ccc(C)c(CN3C[C@@H](C)Oc4ccccc4S3(=O)=O)c2)cc2nnn(C)c12 [KI-696] | 26,39 fold | 0,94 fold | 1,59 fold | 0,61 fold | 0,77 fold | 1,38 fold | 1,74 fold | 0,90 fold | 1,02 fold | 0,70 fold | 0,91 fold | 0,85 fold | 1,43 fold | 2,64 fold | 3,38 fold | 0,82 fold | 1,21 fold | 0,60 fold | 0,78 fold | 0,57 fold | number of up- or downregulated genes in Nrf2 KO cells [1]: none; CYP1B1 FC ([2]; Table S3, THP-1, 12 h): 0,76 fold; NOXA1 FC ([2]; Table S3, THP-1, 12 h): 0,92 fold; SOCS1 FC ([2]; Table S3, THP-1, 12 h): 2,43 fold; SOCS3 FC ([2]; Table S3, THP-1, 12 h): 1,66 fold; SOD1 FC ([2]; Table S3, THP-1, 12 h): 1,75 fold; SOD2 FC ([2]; Table S3, THP-1, 12 h): 0,87 fold; STAT1 FC ([2]; Table S3, THP-1, 12 h): 0,69 fold; TBK1 FC ([2]; Table S3, THP-1, 12 h): 1,56 fold; TLR4 FC ([2]; Table S3, THP-1, 12 h): 0,32 fold; TNFRSF1B FC ([2]; Table S3, THP-1, 12 h): 1,13 fold; TRAP1 FC ([2]; Table S3, THP-1, 12 h): 1,02 fold; cGAS FC ([2]; Table S3, THP-1, 12 h): 1,08 fold; Average FC of upregulated Nrf2-dependent genes [2, 3]: 2.4 fold; number of upregulated genes (FC >2.0, p-adj <0.05) [2, 3]: 88 genes; GCLM fold change vs vehicle [2, 4]: 2.5 fold; GSR fold change vs vehicle [2, 4]: 2.4 fold; HMOX1 fold change vs vehicle [2, 4]: 2.6 fold; NQO1 fold change vs vehicle [2, 4]: 2.3 fold; TXNRD1 fold change vs vehicle [2, 4]: 2.3 fold
4 | C[S+]([O-])CCCCN=C=S (centres unmarked) [SFN, sulforaphane] | 34,78 fold | 0,45 fold | 0,98 fold | 0,55 fold | 1,38 fold | 0,53 fold | 0,94 fold | 0,88 fold | 0,85 fold | 0,63 fold | 0,58 fold | 0,36 fold | 1,48 fold | 7,81 fold | 17,37 fold | 0,32 fold | 0,70 fold | 0,29 fold | 0,44 fold | 0,16 fold | cell viability (THP1 cells): contrasted; CYP1B1 FC [2]: 1,15 fold; NOXA1 FC ([2]; Table S3, THP-1, 12 h): 0,45 fold; SOCS1 FC ([2]; Table S3, THP-1, 12 h): 2,19 fold; SOCS3 FC ([2]; Table S3, THP-1, 12 h): 0,99 fold; SOD1 FC ([2]; Table S3, THP-1, 12 h): 2,16 fold; SOD2 FC ([2]; Table S3, THP-1, 12 h): 0,40 fold; STAT1 FC ([2]; Table S3, THP-1, 12 h): 0,66 fold; TBK1 FC ([2]; Table S3, THP-1, 12 h): 0,95 fold; TLR4 FC ([2]; Table S3, THP-1, 12 h): 0,43 fold; TNFRSF1B FC ([2]; Table S3, THP-1, 12 h): 1,19 fold; TRAP1 FC ([2]; Table S3, THP-1, 12 h): 0,74 fold; cGAS FC ([2]; Table S3, THP-1, 12 h): 1,42 fold; Average FC of upregulated Nrf2-dependent genes [2, 3]: 4.1 fold; number of upregulated genes (FC >2.0, p-adj <0.05) [2, 3]: 676 genes; GCLM fold change vs vehicle [2, 4]: 4.7 fold; GSR fold change vs vehicle [2, 4]: 3.4 fold; SRXN1 fold change vs vehicle [2, 4]: 4.5 fold; TXNRD1 fold change vs vehicle [2, 4]: 3.9 fold
